Results on 3 molecules are retold here after patent US8969405B2, “Anticancer compounds and methods of making and using same” (St. Jude Children's Research Hospital, priority 2008, dated 2015).

In data set [1] the test system is JeKo-1 mantle cell lymphoma cell line. The data set can be described thus: In vitro cytotoxicity analysis (XTT), 72-hour exposure. It is filed as cell-based. Conditions: Homo sapiens, JEKo1 cells. The procedure: (§1) Briefly, cell lines were seeded at various cell densities depending on the cell type.
(§2) Tables 1-3 display cytotoxicity data for exemplary compounds following a 72-hour exposure.
In general terms: Formazan colour is commonly taken as a measure of viable cells.

Data set [2] deals with PC-3 prostate cancer cell line. The data set is described as above. The class given is cell-based. Conditions: Homo sapiens, PC3 cells. The procedure: as §1, §2
The next data set concerns NOD/SCID mice. The experiment in a line: Mouse maximum tolerated dose (MTD) study. It is filed as in vivo. The following applies: for fatality: daily for five days, three mice per group. The method, then:
The mice were monitored for one week following compound administration. […] There was one fatality in the IP 25 mg/kg and one in the IV 50 mg/kg groups.

For data set [3], the system named is JeKo-1 mantle cell lymphoma tumors. The experiment in a line: In vivo efficacy study, JeKo-1 tumor-bearing mice. The method, then: Arrows indicate the dosing schedule. The data are represented as mean±SEM.
Studies were carried out to determine whether the above doses were capable of inhibiting tumor growth in mice (FIG. 4). […] A widely used criterion for determining antitumor activity is tumor growth inhibition (T/C). This value is calculated by dividing the median tumor volumes of treated mice by the median volumes in control mice.

Data set [4] in a line: Stability study in buffer solution by HPLC. The class given is physicochemical. The following applies: 100 μM in PBS buffer and DMSO (2:1). The procedure:
Stability studies were performed for exemplary compounds 48 and 15. A 100 μM solution of compound 48 was prepared in buffer (PBS, pH 7.4) and warfarin was used as an internal standard. A sample was injected into a HPLC periodically starting at day 0 and ending at about 6 weeks to find out the stability of compound 48 in PBS solution. […] After 6 weeks, 58% of compound 48 remained in the buffer solution.

For a further data set, the system named is cell cycle. Conditions: reported in the literature; cited from earlier work.
In data set [5] the test system is experimental tumors in mice. The following applies: reported, Nakajima et al. 1996; cited from earlier work.

As a reminder, the IC50 is the concentration that inhibits the measured activity by half. Read a low IC50 as inhibition by little substance. By half-life is commonly meant how long it takes for the measured level to halve. Consider `CC(/C=C/[C@@H]1C[C@]2(CO2)CC(C)(C)O1)=C\C[C@H]1CC[C@@H](NC(=O)/C=C\[C@H](C)OC(=O)C(C)C)CC1` [Compound 15, (S,Z)-5-((1R,4R)-4-((2E,4E)-5-((3R,5S)-7,7-dimethyl-1,6-dioxaspiro[2.5]octan-5-yl)-3-methylpenta-2,4-dienyl)cyclohexylamino)-5-oxopent-3-en-2-yl isobutyrate], for which the figures for the IC50 in data set [1] and in data set [2] were 0.04 µM and 1.9 µM, respectively. For the same molecule, the fatality result with NOD/SCID mice (IP 25 mg/kg group) and with NOD/SCID mice (IV 50 mg/kg group) was “one” each time. Also, the “blood cell counts in treated versus vehicle-only mice” value in the data set with NOD/SCID mice (NOD/SCID mice, 5-50 mg/kg daily for five days, IV and IP) is on record as “No significant differences”. The weight loss entry in the data set with NOD/SCID mice (NOD/SCID mice, 5-50 mg/kg daily for five days, IV and IP, monitored one week after dosing) is on record as “No significant weight loss”. Also, the “total necropsies, organ histologies” value in the data set with NOD/SCID mice (NOD/SCID mice, treatment and vehicle-only groups) was “no significant toxicities”. Further, the “fatalities or weight loss in efficacy study” value in data set [3] (5, 10, 25, or 50 mg/kg IV daily for five consecutive days) is “No fatalities or significant weight loss”. For the same molecule, the “tumor volumes compared to vehicle-treated mice” value in data set [3] (10, 25, or 50 mg/kg IV daily for five consecutive days from day 4) is reported as “statistically significant decreases”. Moreover, the “compound remaining in the buffer” value in data set [4] (after 6 weeks) is recorded as 53%. In addition, the half-life at 100 μM in data set [4] (read-out: calculated half life (converted)) is 50.6 days.

As for `CC(=O)O[C@@H](C)/C=C\C(=O)N[C@@H]1C[C@H](C)[C@H](C/C=C(C)/C=C/[C@H]2O[C@](C)(O)C[C@@]3(CO3)[C@@H]2O)O[C@@H]1C` [FR901464], the “effect on the cell cycle” value in the data set with cell cycle is “cell cycle arrest at the G1 and G2/M phases”. Further, the “activity in in vivo cancer animal models” value in data set [5] is given as “showed activity”.

Turning to `CC[C@H](O)[C@@H](C)[C@H]1O[C@@H]1C[C@H](C)/C=C/C=C(\C)[C@H]1OC(=O)C[C@H](O)CC[C@@](C)(O)[C@@H](OC(C)=O)/C=C/[C@@H]1C` [pladienolide], the “effect on the cell cycle” value in the data set with cell cycle is “cell cycle arrest at the G1 and G2/M phases”.
